Measured values reported in patent publication US20060166907A1, “Composition for the treatment of nasopharyngeal carcinoma and method of use thereof” (priority 2002, published 2006).
Like-named read-outs stand apart in the source and are kept apart here. Blank lines part the entries; values can stand above or below the compound they belong to.

Experiments:
C15 cells [1] = conditions: for IC50: read-out: IC 50, NPC cell viability, C15 Cells, 72 h incubation, WST-1, PolyHEMA-coated plates
C666-1 cells = assay: WST-1 cell viability assay, C666-1 cells; conditions: for IC50: read-out: IC 50, NPC cell viability, C666-1 Cells
Description: Cell viability assays were performed in 96 well plastic microplates, either uncoated (C666-1) or coated with Poly HEMA (C15). For each cell line, the number of cells distributed per well was optimized in order to achieve the highest metabolic activity while keeping exponential growth till the end of the test. C15 and C666-1 cells were seeded at 10^5 and 35×10^3/well, respectively, in 150 μl culture medium. Following an overnight pre-incubation culture, serial dilutions of chemotherapy drugs (50 μl; final concentration 50 nM-50 μM) were added in quadruplicate to a […]. At the completion of a 72 h incubation with tested pharmacological agents, cell viability was evaluated using the WST-1 assay (Roche Molecular, France). The WST-1 assay is based on the cleavage of the tetrazolium salt by mitochondrial dehydrogenases. […] Cells were incubated with 10 μl of the WST-1 reagent added to the culture medium, for 3 to 6 h, at 37° C. The plates were subsequently read on an ELISA reader (Dynatech MR7000, Guernsey channel Island, USA) using a 490 nm filter. The mean and standard deviation were determined for quadruplicate samples. For each compound, values falling in the linear part of sigmoid curve were included in a linear regression analysis and were used to estimate the 50% inhibitory concentration (IC 50). Measurement of caspase activity in drug treated NPC cells.
(Ali, H. et al., Chemotherapy in advanced nasopharyngeal cancer. Oncology (Huntingt), 14:1223-1230, 2000.) Their short term cytotoxic effect was assessed in vitro on the C15 and C666-1 cells, using a cell viability assay based on WST reduction. Cultured cells were incubated in the presence of various concentrations of each therapeutic agent for 72 hours.

[2] = target: T1, GGTase I from human brain (Homo sapiens, UniProt P49354+P53609); assay: In vitro GGTase I assay ([3H]-geranylgeranylation of H-Ras CVLL); assay type: biochemical; conditions: read-out: Enzyme assays IC50 GGTase I
T1 construct: GGTase I from human brain; purchased ABS reagent; host or cells: human brain (tissue-derived, not recombinant)
Description: (§1) The effect of Compound A and other drugs on FTase activity was assayed in vitro with FTase from human brain cytosol (ABS Reagents, Wilmington, Del.) as target enzyme and recombinant human H-Ras protein containing the wild type CAAX box (Biomol, Plymouth Meeting, Pa.) as a specific substrate. The incubation mixture (25 μl) for [^3H]-farnesylation contained 50 mM Tris-HCl (pH 7.5), 5 mM dithiothreitol, 20 μM ZnCl2, 40 mM MgCl2, 0.6 μM [^3H]-farnesyl pyrophosphate (22.3 Ci/mmol) (NEN, Boston, Mass.), 4 μM recombinant H-Ras and 10 μg FTase. After 60 min at 37° C., the reaction was stopped by adding 150 μl of absolute ethanol. The mixture was then filtered on Unifilter GF/B microplate (Packard, Rungis, France) and washed 6 times with ethanol prior to scintillation counting. After adding 50 μl of Microscint 0, plates were counted with a Packard Top Count scintillation counter. Drug effects on GGTase I activity were assayed by a similar method with GGTase I from human brain (ABS reagent) as target enzyme and human recombinant H-Ras containing a mutated CAAX box (CVLL)(Biomol). The incubation mixture contained 4 μM recombinant H-Ras, 0.6 μM [^3H]-geranylgeranyl-pyrophosphate (19.3 Ci/mmol) (NEN) and 100 μg of GGTase I. GGTI-286 was used as a positive control for the GGTase-I inhibition assay. Results were expressed as the concentrations of drugs required to inhibit 50% of prenyl-incorporation into the recombinant H-Ras proteins (IC50). Assessment of farnesyl-transferase inhibition in intact cells.

[3] = target: T2, FTase from human brain cytosol (Homo sapiens, UniProt P49354+P49356); assay: In vitro FTase assay ([3H]-farnesylation of H-Ras); assay type: biochemical; conditions: mean of 2 experiments (lowest-highest); read-out: Enzyme assays IC50 FTase
T2 construct: FTase from human brain cytosol; purchased ABS Reagents, Wilmington, Del; host or cells: human brain cytosol (tissue-derived, not recombinant)
Description: as §1

CNE1 NPC cell line = conditions: CNE1, EBV-negative line; cited from earlier work
[4] = test system: farnesyl-transferase in intact MIAPaca cells; assay: Farnesyl-transferase inhibition in intact cells (H-Ras and N-Ras Western blot); assay type: cell-based, human; conditions: 48 h
Description: The effect of Compound A on farnesyl-transferase in intact cells was assayed in MIAPaca cells, a human pancreatic carcinoma cell line which was purchased from the ATCC. Both H-Ras and N-Ras were investigated as reference substrates of the endogenous farnesyl-transferase. Total protein extracts were prepared from MIAPaca cells treated for 48 h with increasing concentrations of Compound A (1-100 nM) along with extracts from untreated cells as a negative control. A positive control was provided by cells treated with mevastatine (30 μM). Mevastatine is an HMG-CoA reductase inhibitor which blocks the synthesis of farnesyl metabolic precursors. Cell extracts were separated by SDS-polyacrylamide gels (15%) and analyzed by Western blot with polyclonal antibodies directed to H-Ras and N-Ras (Santa Cruz, Heidelberg, Germany). Farnesyl-transferase inhibition was assessed indirectly by detection of non-prenylated forms of H-Ras and N-Ras which were slightly shifted toward higher molecular weights and reacted more efficiently with antibodies. Assessment of drug effect on NPC cell viability.

C15 cells [5] = assay: PARP cleavage Western blot, C15 cells; assay type: cell-based, human; conditions: doxorubicin 1 μM, Compound A 5 μM, combination at 24 h
Description: FIG. 5. […] Corresponding cell lysates (50 μg protein per lane) were separated by 7.5% SDS-PAGE and analyzed by Western Blot with an anti-PARP monoclonal antibody. The cleaved product of PARP was at 85 kD, as shown in the positive-control extract derived from C15 cells treated with the CD95 agonist-antibody 7C11.

C15 cells [6] = assay: TRAF1 cleavage Western blot, C15 cells; assay type: cell-based, human; conditions: 24 h, doxorubicin 1 μM, Compound A 5 μM
Description: FIG. 6. Induction of TRAF1-cleavage in C15 cells treated with doxorubicin combined to Compound A. A: Diagram of Fas-mediated TRAF-1-cleavage as reported by Leo et al. (2001). The locations of target peptides used for production of the H-3 monoclonal and H-132 polyclonal antibody are indicated by hatched boxes. The peptide targeted by H-3 was entirely contained in fragment II whereas the peptide targeted by H132 was mainly co-linear with fragment I. B: C15 cells were treated for 24 h with doxorubicin (1 μM), Compound A […] or a combination of both. Control cells were treated with the Fas-agonist antibody 7C11. Cell lysates (50 μg protein per lane) were separated on a 8-16% SDS-PAGE linear gradient prior to Western Blot analysis with anti-TRAF-1 antibodies. Both antibodies detected a main band at 46 kd Additional bands corresponding to fragments of smaller sizes were visible, mainly in samples treated with 7C11 or the combination of doxorubicin and Compound A. In the extracts of cells treated with 7C11, these smaller fragments had apparent molecular weights of 29 kD (H-3) and 24 kD (H-132) which were compatible with the sizes of TRAF1 fragments reported by Leo et al. (2001). Similar results were obtained in three similar experiments.

C15 cells [7] = assay: cells; conditions: Homo sapiens, 72 h, read-out: IC 50, NPC cell viability, C15 Cells
C15 cells [8] = assay: Nuclear morphology, Hoechst 33342 staining, C15 cells; assay type: cell-based, human; conditions: 48 h to 72 h, doxorubicin 1 μM, Compound A 5 μM
Description: FIG. 3. […] A: non-treated cells.

[9] = test system: TWO1 and TWO39 NPC cell lines; conditions: TWO1 and TWO39, EBV-negative lines; cited from earlier work
[10] = mean of 2 experiments (lowest-highest)

SMILES: O=c1[nH]cc(F)c(=O)[nH]1 [5-fluorouracyl]
sensitivity to short term cytotoxic effect (C15 cells [1]): No significant effects
IC50 (C15 cells [1]): ≥ 5000 nM
sensitivity to short term cytotoxic effect (C666-1 cells): No significant effects
IC50 (C666-1 cells; 72 h incubation, WST-1): ≥ 5000 nM

SMILES: CC[C@H](C)[C@@H](CN1CSC(C)(C)[C@H]1C(=O)N[C@@H](CCSC)C(=O)OC)NC[C@@H](N)CS [BIM-46068]
IC50 [2, 10]: 268000 nM
IC50 [3]: 91 nM

SMILES: N.N.[Cl][Pt][Cl] [Cis-platinum, cis-platin]
enhancement of cytotoxicity by combination with Compound A (C15 cells [1]): not observed
IC50 (C15 cells [1]): 1000 nM
IC50 (C666-1 cells; 72 h incubation, WST-1): 5000 nM
concentration inducing growth arrest (CNE1 NPC cell line): about 1 μM

SMILES: COc1cc(Cn2cncc2CC(=O)N2Cc3nc(-c4ccccc4Br)cn3Cc3c(F)cccc32)ccc1C#N [Compound A]
concentration giving significant inhibition of H-Ras and N-Ras farnesylation [4]: 50 nM
PARP cleavage (C15 cells [5]): Moderate PARP cleavage
TRAF1 cleavage (C15 cells [6]): no modifications
IC50 (C666-1 cells; Homo sapiens, C6661, 72 h): 10000 nM
IC50 [2]: > 100000 nM
IC50 (C15 cells [7]): 10000 nM
nuclear apoptosis morphological changes (C15 cells [8]): much less apparent
IC50 [3]: 15 nM

SMILES: COc1cccc2c1C(=O)c1c(O)c3c(c(O)c1C2=O)C[C@@](O)(C(=O)CO)C[C@@H]3O[C@H]1C[C@H](N)[C@H](O)[C@H](C)O1 [Doxorubicin, doxorubicin]
PARP cleavage (C15 cells [5]): Moderate PARP cleavage
TRAF1 cleavage (C15 cells [6]): no modifications
IC50 (C666-1 cells; Homo sapiens, C6661, 72 h): 200 nM
IC50 (C15 cells [7]): 150 nM
nuclear apoptosis morphological changes (C15 cells [8]): much less apparent

SMILES: CC(=O)O[C@H]1C(=O)[C@@]2(C)[C@H]([C@H](OC(=O)c3ccccc3)[C@]3(O)C[C@H](OC(=O)[C@H](O)[C@@H](NC(=O)c4ccccc4)c4ccccc4)C(C)=C1C3(C)C)[C@]1(OC(C)=O)CO[C@@H]1C[C@@H]2O [Taxol]
sensitivity to short term cytotoxic effect (C15 cells [1]): totally resistant
sensitivity to short term cytotoxic effect (C666-1 cells): highly sensitive
IC50 (C666-1 cells; Homo sapiens, C6661, 72 h): 200 nM
IC50 (C15 cells [7]): ≥ 25000 nM
effect on NPC cell lines [9]: induce growth arrest and/or apoptosis

Continued, values first:

IC50 [2, 10]: 314 nM
IC50 [3]: 30 nM
SMILES: COC(=O)[C@H](CCSC)NC(=O)c1ccc(NC[C@@H](N)CS)cc1-c1ccccc1 [FTI-277]

IC50 [2, 10]: 114 nM
IC50 [3]: 365 nM
SMILES: COC(=O)[C@H](CC(C)C)NC(=O)c1ccc(NC[C@@H](N)CS)cc1-c1ccccc1 [GGTI-286]
